{"source": "patent US20240246942A1", "about": "“KINASE INHIBITORS FOR THE TREATMENT OF NEURODEGENERATIVE DISEASES” (priority 2020, published 2024)", "experiment_in_all_cases": "biochemical", "key": {"[1]": {"target": "T1, panel of 374 wild-type kinases (Homo sapiens, UniProt P53778)", "T1 construct": "purchased Reaction Biology Corporation", "T1 sequence (P53778 1-367)": "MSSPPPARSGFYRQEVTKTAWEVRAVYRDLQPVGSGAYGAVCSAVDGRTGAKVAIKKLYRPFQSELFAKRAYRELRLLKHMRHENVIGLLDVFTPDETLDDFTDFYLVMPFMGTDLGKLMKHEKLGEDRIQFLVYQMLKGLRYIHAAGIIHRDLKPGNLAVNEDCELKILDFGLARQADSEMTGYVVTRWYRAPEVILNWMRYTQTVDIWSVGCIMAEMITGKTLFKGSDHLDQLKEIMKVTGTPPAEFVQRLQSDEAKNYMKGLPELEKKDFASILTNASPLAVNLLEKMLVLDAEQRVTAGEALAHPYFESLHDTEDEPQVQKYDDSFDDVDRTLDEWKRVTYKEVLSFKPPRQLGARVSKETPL", "details": "read-out: % Enzyme Activity (relative to DMSO controls), kinase P38g"}, "[2]": {"target": "T2, panel of 374 wild-type kinases (Homo sapiens, UniProt Q6VAB6)", "T2 construct": "purchased Reaction Biology Corporation", "T2 sequence (Q6VAB6 1-950)": "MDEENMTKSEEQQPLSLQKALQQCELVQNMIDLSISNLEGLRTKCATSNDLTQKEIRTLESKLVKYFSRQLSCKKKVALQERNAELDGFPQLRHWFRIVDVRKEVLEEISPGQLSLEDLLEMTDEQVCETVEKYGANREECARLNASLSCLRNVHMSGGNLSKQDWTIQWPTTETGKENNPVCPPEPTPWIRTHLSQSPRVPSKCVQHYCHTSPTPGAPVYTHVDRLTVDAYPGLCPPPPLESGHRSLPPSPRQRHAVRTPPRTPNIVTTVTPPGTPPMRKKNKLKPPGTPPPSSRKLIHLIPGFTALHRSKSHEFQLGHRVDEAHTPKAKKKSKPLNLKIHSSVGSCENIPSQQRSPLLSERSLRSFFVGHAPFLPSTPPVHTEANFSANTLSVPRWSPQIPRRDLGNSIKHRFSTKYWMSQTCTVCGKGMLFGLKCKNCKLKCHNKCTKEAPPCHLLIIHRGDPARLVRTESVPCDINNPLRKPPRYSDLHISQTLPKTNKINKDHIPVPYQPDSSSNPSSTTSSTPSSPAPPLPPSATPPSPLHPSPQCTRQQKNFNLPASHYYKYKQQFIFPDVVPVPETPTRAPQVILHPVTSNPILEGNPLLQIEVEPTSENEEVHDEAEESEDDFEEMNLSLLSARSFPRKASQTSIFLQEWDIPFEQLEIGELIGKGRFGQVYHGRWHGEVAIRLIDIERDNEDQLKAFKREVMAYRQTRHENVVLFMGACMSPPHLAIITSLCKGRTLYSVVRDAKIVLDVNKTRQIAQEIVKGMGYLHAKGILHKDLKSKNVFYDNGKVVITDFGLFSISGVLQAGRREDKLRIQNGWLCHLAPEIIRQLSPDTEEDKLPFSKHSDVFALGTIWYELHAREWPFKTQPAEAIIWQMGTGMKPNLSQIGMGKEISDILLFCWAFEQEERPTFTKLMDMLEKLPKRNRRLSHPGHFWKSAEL", "details": "read-out: % Enzyme Activity (relative to DMSO controls), KSR2"}, "[3]": {"target": "T3, panel of 374 wild-type kinases (Homo sapiens, UniProt P08581)", "T3 construct": "purchased Reaction Biology Corporation", "T3 sequence (P08581 25-1390)": "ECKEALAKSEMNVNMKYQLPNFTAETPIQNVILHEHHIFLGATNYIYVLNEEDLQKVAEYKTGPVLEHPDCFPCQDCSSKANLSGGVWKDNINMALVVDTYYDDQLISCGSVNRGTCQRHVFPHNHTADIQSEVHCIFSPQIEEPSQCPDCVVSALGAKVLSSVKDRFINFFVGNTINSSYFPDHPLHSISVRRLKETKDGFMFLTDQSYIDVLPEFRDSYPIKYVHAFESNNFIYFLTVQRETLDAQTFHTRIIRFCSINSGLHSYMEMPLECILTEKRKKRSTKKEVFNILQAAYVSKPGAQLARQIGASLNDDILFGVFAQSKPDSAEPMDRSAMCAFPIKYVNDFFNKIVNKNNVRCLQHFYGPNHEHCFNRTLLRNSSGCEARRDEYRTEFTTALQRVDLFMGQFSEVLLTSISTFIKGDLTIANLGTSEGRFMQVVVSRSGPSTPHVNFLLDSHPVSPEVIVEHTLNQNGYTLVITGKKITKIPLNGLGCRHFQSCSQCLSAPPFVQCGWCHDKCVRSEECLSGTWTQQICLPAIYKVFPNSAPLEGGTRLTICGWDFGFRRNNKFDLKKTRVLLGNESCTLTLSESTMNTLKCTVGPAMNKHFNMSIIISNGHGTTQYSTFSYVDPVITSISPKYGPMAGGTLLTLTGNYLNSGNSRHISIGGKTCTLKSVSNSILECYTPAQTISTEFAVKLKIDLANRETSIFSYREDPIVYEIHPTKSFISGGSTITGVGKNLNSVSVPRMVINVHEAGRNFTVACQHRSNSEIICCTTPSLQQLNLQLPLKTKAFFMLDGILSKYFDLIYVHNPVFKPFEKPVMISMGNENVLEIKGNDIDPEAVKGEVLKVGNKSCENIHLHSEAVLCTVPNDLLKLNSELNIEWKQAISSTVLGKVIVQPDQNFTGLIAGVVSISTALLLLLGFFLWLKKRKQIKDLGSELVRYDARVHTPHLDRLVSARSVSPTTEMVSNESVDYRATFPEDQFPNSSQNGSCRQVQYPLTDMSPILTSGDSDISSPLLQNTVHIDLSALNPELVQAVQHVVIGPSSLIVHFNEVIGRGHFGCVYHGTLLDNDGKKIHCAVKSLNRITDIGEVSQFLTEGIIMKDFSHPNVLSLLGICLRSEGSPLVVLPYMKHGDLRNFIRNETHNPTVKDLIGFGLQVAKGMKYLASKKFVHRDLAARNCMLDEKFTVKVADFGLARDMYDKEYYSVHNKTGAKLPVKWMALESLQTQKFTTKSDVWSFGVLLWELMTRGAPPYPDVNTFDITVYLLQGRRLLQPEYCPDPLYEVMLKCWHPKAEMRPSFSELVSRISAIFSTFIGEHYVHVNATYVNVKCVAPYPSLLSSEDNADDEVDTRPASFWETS", "details": "read-out: % Enzyme Activity (relative to DMSO controls), c-MET"}, "[4]": {"target": "T4, panel of 374 wild-type kinases (Homo sapiens, UniProt Q13976)", "T4 construct": "purchased Reaction Biology Corporation", "T4 sequence (Q13976 1-671)": "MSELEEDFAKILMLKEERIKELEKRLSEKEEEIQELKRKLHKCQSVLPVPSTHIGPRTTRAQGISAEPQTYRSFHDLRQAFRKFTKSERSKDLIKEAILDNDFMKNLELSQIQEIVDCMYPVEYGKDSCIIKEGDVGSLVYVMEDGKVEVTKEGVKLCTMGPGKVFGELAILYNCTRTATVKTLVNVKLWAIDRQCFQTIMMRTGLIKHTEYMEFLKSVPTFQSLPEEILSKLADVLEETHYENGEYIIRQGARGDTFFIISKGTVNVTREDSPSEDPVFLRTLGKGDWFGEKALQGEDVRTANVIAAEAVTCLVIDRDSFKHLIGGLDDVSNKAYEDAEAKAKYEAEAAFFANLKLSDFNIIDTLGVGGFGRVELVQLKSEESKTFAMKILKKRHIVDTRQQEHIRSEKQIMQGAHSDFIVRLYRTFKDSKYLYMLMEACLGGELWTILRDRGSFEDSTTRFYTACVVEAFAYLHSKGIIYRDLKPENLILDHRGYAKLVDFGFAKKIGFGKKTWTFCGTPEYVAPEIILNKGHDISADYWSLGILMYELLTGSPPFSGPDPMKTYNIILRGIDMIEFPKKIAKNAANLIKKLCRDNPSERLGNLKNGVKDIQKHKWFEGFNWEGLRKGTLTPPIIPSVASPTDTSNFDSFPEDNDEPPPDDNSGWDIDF", "details": "read-out: % Enzyme Activity (relative to DMSO controls), kinase PKG1a"}, "[5]": {"target": "T5, panel of 374 wild-type kinases (Homo sapiens, UniProt Q9UEW8)", "T5 construct": "purchased Reaction Biology Corporation", "details": "kinase STK39/STLK3, read-out: % Enzyme Activity (relative to DMSO controls)"}, "[6]": {"target": "T6, panel of 374 wild-type kinases (Homo sapiens, UniProt Q9UM73)", "T6 construct": "purchased Reaction Biology Corporation", "T6 sequence (Q9UM73 19-1620)": "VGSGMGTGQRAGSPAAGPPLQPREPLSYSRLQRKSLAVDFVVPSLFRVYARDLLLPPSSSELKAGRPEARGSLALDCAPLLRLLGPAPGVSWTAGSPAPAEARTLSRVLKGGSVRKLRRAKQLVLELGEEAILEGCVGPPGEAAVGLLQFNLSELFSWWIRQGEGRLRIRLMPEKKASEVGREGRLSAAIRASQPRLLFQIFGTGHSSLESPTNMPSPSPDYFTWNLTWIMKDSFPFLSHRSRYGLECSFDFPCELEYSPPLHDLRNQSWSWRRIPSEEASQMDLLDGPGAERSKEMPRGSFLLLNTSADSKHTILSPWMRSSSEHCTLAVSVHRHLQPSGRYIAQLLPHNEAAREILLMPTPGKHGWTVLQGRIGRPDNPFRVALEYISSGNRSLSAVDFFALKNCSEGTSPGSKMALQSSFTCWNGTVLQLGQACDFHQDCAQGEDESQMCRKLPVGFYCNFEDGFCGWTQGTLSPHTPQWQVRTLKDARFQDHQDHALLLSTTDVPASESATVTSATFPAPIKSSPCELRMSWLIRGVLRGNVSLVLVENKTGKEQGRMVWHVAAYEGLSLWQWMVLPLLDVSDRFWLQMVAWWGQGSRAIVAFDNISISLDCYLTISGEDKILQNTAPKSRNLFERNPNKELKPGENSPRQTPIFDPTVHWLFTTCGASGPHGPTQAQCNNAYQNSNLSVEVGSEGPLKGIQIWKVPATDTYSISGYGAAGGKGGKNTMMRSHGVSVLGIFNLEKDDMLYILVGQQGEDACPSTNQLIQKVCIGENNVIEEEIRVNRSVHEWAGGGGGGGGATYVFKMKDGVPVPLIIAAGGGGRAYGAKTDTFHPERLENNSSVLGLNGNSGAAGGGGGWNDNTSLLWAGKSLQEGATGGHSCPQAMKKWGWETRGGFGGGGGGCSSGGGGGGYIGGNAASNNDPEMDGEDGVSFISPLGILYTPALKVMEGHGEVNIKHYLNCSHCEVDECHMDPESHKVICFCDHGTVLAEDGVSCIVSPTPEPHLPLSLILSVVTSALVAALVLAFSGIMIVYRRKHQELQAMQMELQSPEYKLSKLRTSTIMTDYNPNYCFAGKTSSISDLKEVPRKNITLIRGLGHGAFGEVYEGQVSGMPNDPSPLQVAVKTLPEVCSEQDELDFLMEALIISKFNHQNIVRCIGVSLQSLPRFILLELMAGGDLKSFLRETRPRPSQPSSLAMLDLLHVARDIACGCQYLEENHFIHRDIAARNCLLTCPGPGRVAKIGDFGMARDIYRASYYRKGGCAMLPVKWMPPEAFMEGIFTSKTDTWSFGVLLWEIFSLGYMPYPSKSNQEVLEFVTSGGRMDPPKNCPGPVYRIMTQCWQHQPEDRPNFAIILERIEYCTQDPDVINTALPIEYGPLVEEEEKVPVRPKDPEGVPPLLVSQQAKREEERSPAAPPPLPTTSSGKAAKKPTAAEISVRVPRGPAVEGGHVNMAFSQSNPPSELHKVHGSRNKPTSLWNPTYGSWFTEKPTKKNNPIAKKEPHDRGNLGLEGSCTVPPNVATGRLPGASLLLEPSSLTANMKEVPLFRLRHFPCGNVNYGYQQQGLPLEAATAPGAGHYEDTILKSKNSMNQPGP", "details": "read-out: % Enzyme Activity (relative to DMSO controls), ALK"}, "[7]": {"target": "T7, panel of 374 wild-type kinases (Homo sapiens, UniProt P22694)", "T7 construct": "purchased Reaction Biology Corporation", "details": "read-out: % Enzyme Activity (relative to DMSO controls), kinase PKAcb"}}, "data": [{"smiles": "Cc1sc(C(=O)NC2COC2)cc1-n1cc(NC(=O)Nc2c(F)cccc2Cl)cn1", "note": "[Compound 27, 4-(4-(3-(2-chloro-6-fluorophenyl)ureido)-1H-pyrazol-1-yl)-5-methyl-N-(oxetan-3-yl)thiophene-2-carboxamide]", "values": [{"measurement": "remaining activity at 10 µM", "setting": "[1]; 10 uM", "value": 90.5, "unit": "%"}, {"measurement": "remaining activity at 10 µM", "setting": "[2]; 10 uM", "value": 99.2, "unit": "%"}, {"measurement": "remaining activity at 10 µM", "setting": "[3]; 10 uM", "value": 77, "unit": "%"}, {"measurement": "remaining activity at 10 µM", "setting": "[4]; 10 uM", "value": 120, "unit": "%"}, {"measurement": "remaining activity at 10 µM", "setting": "[5]; 10 uM", "value": 64.5, "unit": "%"}, {"measurement": "remaining activity at 10 µM", "setting": "[6]; 10 uM", "value": 100, "unit": "%"}, {"measurement": "remaining activity at 10 µM", "setting": "[7]; 10 uM", "value": 104, "unit": "%"}]}, {"smiles": "O=C(Nc1cnn(-c2csc(C(=O)NC3COC3)c2)c1)Nc1c(F)cccc1Cl", "note": "[Compound 25, 4-(4-(3-(2-chloro-6-fluorophenyl)ureido)-1H-pyrazol-1-yl)-N-(oxetan-3-yl)thiophene-2-carboxamide]", "values": [{"measurement": "remaining activity at 5 µM", "setting": "[1]", "value": 98.3, "unit": "%"}, {"measurement": "remaining activity at 5 µM", "setting": "[2]", "value": 92.7, "unit": "%"}, {"measurement": "remaining activity at 5 µM", "setting": "[3]", "value": 86.1, "unit": "%"}, {"measurement": "remaining activity at 5 µM", "setting": "[4]", "value": 93.2, "unit": "%"}, {"measurement": "remaining activity at 5 µM", "setting": "[5]", "value": 82.3, "unit": "%"}, {"measurement": "remaining activity at 5 µM", "setting": "[6]", "value": 89.2, "unit": "%"}, {"measurement": "remaining activity at 5 µM", "setting": "[7]", "value": 98.3, "unit": "%"}]}, {"smiles": "O=C(Nc1cnn(-c2csc(C(=O)NC3COC3)c2)c1)Nc1ccccc1Cl", "note": "[Compound 17, 4-(4-(3-(2-chlorophenyl)ureido)-1H-pyrazol-1-yl)-N-(oxetan-3-yl)thiophene-2-carboxamide]", "values": [{"measurement": "remaining activity at 5 µM", "setting": "[1]", "value": 99.4, "unit": "%"}, {"measurement": "remaining activity at 5 µM", "setting": "[2]", "value": 107, "unit": "%"}, {"measurement": "remaining activity at 5 µM", "setting": "[3]", "value": 102, "unit": "%"}, {"measurement": "remaining activity at 5 µM", "setting": "[4]", "value": 110, "unit": "%"}, {"measurement": "remaining activity at 5 µM", "setting": "[5]", "value": 87.5, "unit": "%"}, {"measurement": "remaining activity at 5 µM", "setting": "[6]", "value": 101, "unit": "%"}, {"measurement": "remaining activity at 5 µM", "setting": "[7]", "value": 99, "unit": "%"}]}]}
